Source: article PMC4501059, “Responding to the challenge of untreatable gonorrhea: ETX0914, a first-in-class agent with a distinct mechanism-of-action against bacterial Type II topoisomerases” (Scientific Reports, 2015)

Tests used:
in vivo = details: rat, po
[1] = rat, in vivo
[2] = Quantitative whole-body autoradiography, tissue distribution of radioactivity; format: in vivo, male pigmented Lister Hood rat
Method: Quantitative whole-body autoradiography. The distribution of radioactivity in male, pigmented Lister Hood rat tissues was obtained after a single intravenous infusion over 15 minutes of ^14C-AZD0914 at 25 mg/kg (51 μmol/kg, 5 MBq/kg) using quantitative whole-body autoradiography with phosphor-imaging technology. The potential of this compound and/or its metabolites to bind to melanin-containing tissues and/or to potentially bind covalently to tissues was also evaluated. The rats were sacrificed at 5 minutes, 1 hour, 4 hours, 24 hours, 48 hours, 7 days and 21 days after the end of infusion with enflurane (Efrane®, Abbott Laboratories, USA), and frozen in acetone, cooled to -70 °C with solid CO2. The 7- and 21- day animals could not be quantified as no trace of radioactivity was observed. After removal of limbs and tail, the carcass was embedded, with left lateral side uppermost, in a 2.5% (w/v) aqueous solution of caramellosum natricum and frozen for at least 10 minutes. The animal blocks were stored at -20 °C until sectioning. Sagittal whole-body sections (30 μm) were obtained to include organs and tissues of interest. At sectioning each block was mounted in a Leica CM3600 Cryomacrotome (Leica Microsystems GmbH, Germany) maintained at approximately -20 °C. All sections were dried at -20 °C for at least 1 day prior to exposure on phosphor-imaging plates. Together with two sets of calibration standards, the sections were placed on phosphor-imaging plates, which had been pre-covered with a thin plastic film. The imaging plates were exposed for 1 to 3 days at +4 to +12 °C, enclosed in light tight cassettes in a lead shielding box to protect from environmental radiation. Following exposure, the imaging plates were scanned at a pixel size of 50 μm using FLA-7000 (FujiFilm Sverige AB, Sweden). The tissues and organs of interest were quantified using AIDA 3.5 (Raytest, Germany). The quantification limit was defined as twice the background value of the imaging plate and varied between the plates from 0.23 to 0.33 nmol/g. The various tissues and organs were identified either on the autoradiograms or on the corresponding tissue sections.

[3] = plasma protein binding, mouse; details: in vitro at 1-50 µM
[4] = Human plasma protein binding (PPB); details: independent of concentration 1–50 μM
[5] = 5 minutes after 25 mg/kg iv infusion
[6] = 1 hour after 25 mg/kg iv infusion
[7] = 4 hours after 25 mg/kg iv infusion

CC(=O)NC[C@H]1CN(c2ccc(N3CCOCC3)c(F)c2)C(=O)O1 [Linezolid]
AUC (in vivo): 1900 µM·h
neutrophil count [1]: showing suppression
reticulocytes count ([1]; 250 mg/kg): significant suppression

C[C@@H]1CN2c3c(cc4c(N5C(=O)OC[C@@H]5C)noc4c3F)C[14C]3(C(=O)NC(=O)NC3=O)[C@H]2[C@H](C)O1 [^14C-ETX0914]
Total radioactivity: Adrenal cortex [2, 5]: 84 nmol/g
Total radioactivity: Adrenal medulla [2, 5]: 43 nmol/g
Total radioactivity: Aortic wall [2, 5]: 53 nmol/g
Total radioactivity: Bile [2, 5]: 1200 nmol/g
Total radioactivity: Bone marrow [2, 5]: 35 nmol/g
Total radioactivity: Brain [2, 5]: 0.79 nmol/g
Total radioactivity: Choroid & retinal pigment epithelium [2, 5]: 16 nmol/g
Total radioactivity: Heart blood [2, 5]: 27 nmol/g
Total radioactivity: Liver [2, 5]: 320 nmol/g
Total radioactivity: Lung [2, 5]: 52 nmol/g
Total radioactivity: Lymph node [2, 5]: 29 nmol/g
Total radioactivity: Myocardium [2, 5]: 73 nmol/g
Total radioactivity: Renal cortex [2, 5]: 170 nmol/g
Total radioactivity: Renal medulla (inner) [2, 5]: 70 nmol/g
Total radioactivity: Renal medulla (outer) [2, 5]: 68 nmol/g
Total radioactivity: Skeletal muscle [2, 5]: 29 nmol/g
Total radioactivity: Skin, pigmented [2, 5]: 15 nmol/g
Total radioactivity: Spinal cord [2, 5]: 1.0 nmol/g
Total radioactivity: Testis [2, 5]: 2.4 nmol/g
Total radioactivity: Urine [2, 5]: 51 nmol/g
Total radioactivity: White fat [2, 5]: 6.6 nmol/g
Total radioactivity: Adrenal cortex [2, 6]: 40 nmol/g
Total radioactivity: Adrenal medulla [2, 6]: 26 nmol/g
Total radioactivity: Aortic wall [2, 6]: 58 nmol/g
Total radioactivity: Bile [2, 6]: 1500 nmol/g
Total radioactivity: Bone marrow [2, 6]: 20 nmol/g
Total radioactivity: Brain [2, 6]: 0.72 nmol/g
Total radioactivity: Choroid & retinal pigment epithelium [2, 6]: 17 nmol/g
Total radioactivity: Heart blood [2, 6]: 18 nmol/g
Total radioactivity: Liver [2, 6]: 190 nmol/g
Total radioactivity: Lung [2, 6]: 31 nmol/g
Total radioactivity: Lymph node [2, 6]: 23 nmol/g
Total radioactivity: Myocardium [2, 6]: 42 nmol/g
Total radioactivity: Renal cortex [2, 6]: 130 nmol/g
Total radioactivity: Renal medulla (inner) [2, 6]: 32 nmol/g
Total radioactivity: Renal medulla (outer) [2, 6]: 120 nmol/g
Total radioactivity: Skeletal muscle [2, 6]: 20 nmol/g
Total radioactivity: Skin, pigmented [2, 6]: 20 nmol/g
Total radioactivity: Spinal cord [2, 6]: 1.0 nmol/g
Total radioactivity: Testis [2, 6]: 5.7 nmol/g
Total radioactivity: Urine [2, 6]: 400 nmol/g
Total radioactivity: White fat [2, 6]: 8.9 nmol/g
Total radioactivity: Adrenal cortex [2, 7]: 8.7 nmol/g
Total radioactivity: Adrenal medulla [2, 7]: 4.5 nmol/g
Total radioactivity: Aortic wall [2, 7]: 13 nmol/g
Total radioactivity: Bone marrow [2, 7]: 4.0 nmol/g
Total radioactivity: Choroid & retinal pigment epithelium [2, 7]: 8.1 nmol/g
Total radioactivity: Heart blood [2, 7]: 4.2 nmol/g
Total radioactivity: Liver [2, 7]: 69 nmol/g
Total radioactivity: Lung [2, 7]: 6.9 nmol/g
Total radioactivity: Lymph node [2, 7]: 4.1 nmol/g
Total radioactivity: Myocardium [2, 7]: 6.9 nmol/g
Total radioactivity: Renal cortex [2, 7]: 39 nmol/g
Total radioactivity: Renal medulla (inner) [2, 7]: 8.0 nmol/g
Total radioactivity: Renal medulla (outer) [2, 7]: 18 nmol/g
Total radioactivity: Skeletal muscle [2, 7]: 4.2 nmol/g
Total radioactivity: Skin, pigmented [2, 7]: 3.6 nmol/g
Total radioactivity: Spinal cord [2, 7]: 0.30 nmol/g
Total radioactivity: Testis [2, 7]: 2.6 nmol/g
Total radioactivity: Urine [2, 7]: 100 nmol/g
Total radioactivity: Brain ([2]; 4 hours after 25 mg/kg iv infusion, BLQ = below limit of quantification (0.24)): BLQ^d
Total radioactivity: Liver ([2]; 24 hours after 25 mg/kg iv infusion): 0.35 nmol/g
Total radioactivity: Liver ([2]; 48 hours after 25 mg/kg iv infusion, BLQ = below limit of quantification (0.24)): BLQ
melanin or covalent binding of parent and/or metabolites to tissue ([2]; pigmented rat): no melanin or covalent binding
CNS penetration ([2]; rat, whole-body autoradiography): very low CNS penetration
PPB (%free) [3]: 22.1 %free
PPB (%free) [4]: 17.0 % free
